Results: ChEMBL document CHEMBL1136552, “Synthesis and preliminary cytotoxicity of nitrogen mustard derivatives of distamycin A” (Bioorg Med Chem Lett, 2003)
pIC50: −log10 of the molar value.

tested on: K562; assay: Cytotoxicity against K562 leukemia cells in vitro, expressed as the minimal concentration necessary to inhibit incorporation of [3H]thymidine by 50%; format: functional, cell-based; conditions: Homo sapiens, K562, 48 h

Compared with `CCCC(=O)Nc1cc(/C=C/C(=O)Nc2cc(C(=O)Nc3ccc(N(CCCl)CCCl)cc3)n(C)c2)n(C)c1`, `CCCC(=O)Nc1cc(/C=C/C(=O)Nc2ccc(N(CCCl)CCCl)cc2)n(C)c1` is 0.76 log units lower in pIC50: 6.68 for the first, 5.92 for the second. The first is the more potent here.

Going from `O=C(O)CCCc1ccc(N(CCCl)CCCl)cc1` [CHLORAMBUCIL] to `CCCONc1cc(C(=O)Nc2ccc(N(CCCl)CCCl)cc2)n(C)c1`, the pIC50 rises from 4.46 to 6.02 (1.56 log units). The second is the more potent here.

Compared with `CCCONc1cc(C(=O)Nc2cc(C(=O)Nc3ccc(N(CCCl)CCCl)cc3)n(C)c2)n(C)c1`, `CCCONc1cc(C(=O)Nc2cc(C(=O)Nc3cc(C(=O)Nc4ccc(N(CCCl)CCCl)cc4)n(C)c3)n(C)c2)n(C)c1` is 0.92 log units higher in pIC50: 6.60 for the first, 7.52 for the second. The second is the more potent here.
